In general, melting point refers to the temperature of the solid-liquid transition.

System in the first data set: not given
Conditions: not given
As for `C#Cc1cccc(Nc2ncnc3cc(C)ncc23)c1.Cl`, the melting point fell in the range of 240 to 241 °C.
The same measure, in the same setting: to `Clc1ccc2c(c1)N(c1ncnc3cnccc13)CC2` belongs 194 to 196 °C.
Still for that read-out and setting: as for `Cc1cccc(Nc2ncnc3cnccc23)c1`, the figure is 172 °C; as for `Cl.Clc1ccc2c(c1)N(c1ncnc3[nH]ccc13)CC2`, 266 °C (dec.); as for `c1ccc(Nc2ncnc3ncccc23)cc1`, 258 °C.
On the same count and under the same terms, to `c1ccc(Nc2ncnc3cnccc23)cc1` belongs 161 °C.
In the case of `Oc1cc2ncnc(N3CCc4ccc(Cl)cc43)c2[nH]1`, the melting point was 250 °C (dec.).
Still for that read-out and setting: to `Cl.c1nc(Nc2ccc3[nH]ccc3c2)c2cc[nH]c2n1` belongs 218 to 221 °C.
Molecule `C#Cc1cccc(Nc2ncnc3c2ccn3CCOCCOC)c1` registered a melting point of 240 to 241 °C.
The same measure, in the same setting: to `C#Cc1cc(Nc2ncnc3cnc(C)cc23)ccc1F` belongs 225 °C; to `Cc1cc2c(Nc3ccc(O)c(C)c3)ncnc2cn1.Cl.Cl`, 298 to 305 °C; to `Cc1cc2c(N3CCc4c(Br)ccc(C)c43)ncnc2cn1.Cl`, 232 to 244 °C.
Still for that read-out and setting: to `Cc1cc2c(N3CCc4ccc(Br)c(C)c43)ncnc2cn1.Cl` belongs 212 to 229 °C; to `Cc1cc2c(N3CCc4cc(F)c(Br)cc43)ncnc2cn1.Cl`, 262 to 264 °C; to `Cc1cc2c(Nc3ccc(F)c(Cl)c3)ncnc2cn1.Cl`, 251 to 258 °C.
The molecule `Cc1cc2c(Nc3cccc(C(F)(F)F)c3)ncnc2cn1.Cl` had a melting point of 269 to 270 °C.
The same measure, in the same setting: to `Cc1cc2c(Nc3ccc(F)c(C)c3)ncnc2cn1.Cl` belongs 246 to 250 °C.
Same read-out and setting: as for `Cc1cc2c(Nc3ccc(O)c(I)c3)ncnc2cn1.Cl`, the figure is 261 to 265 °C; as for `Cc1cc2c(Nc3ccc(Br)c(F)c3)ncnc2cn1.Cl`, 251 to 254 °C.
`Cl.c1cc2c(Nc3ccc4sccc4c3)ncnc2cn1` gave a melting point of 280 to 282 °C.
As for `C#Cc1cccc(Nc2ncnc3cnc(C)cc23)c1.Cl`, the melting point fell in the range of 250 to 252 °C.
Still for that read-out and setting: to `Cc1cc2c(N3CCc4ccc(Cl)cc43)ncnc2cn1` belongs 232 to 234 °C.
On the same count and under the same terms, as for `CS(=O)(=O)O.Cc1cc2c(Nc3ccc4[nH]ccc4c3)ncnc2cn1`, the figure is 262 to 263 °C.

The next data set concerns another carcinoma which does not express the EGF receptor. To be noted: athymic nude mice; cited from earlier work.
Take `O=CN/C=C/c1cc(O)ccc1O` [erbstatin]: the “growth of carcinoma not expressing the EGF receptor” value was “without effect on the growth”.

For another data set, the system named is transplanted human mammary carcinoma which expresses epidermal growth factor receptor tyrosine kinase (EGFR). Conditions: athymic nude mice; cited from earlier work.
For the molecule `O=CN/C=C/c1cc(O)ccc1O` [erbstatin], the “growth of transplanted human mammary carcinoma expressing EGFR” value is listed as “selectively attenuates the growth”.

The values are drawn from patent US6395733B1, “Heterocyclic ring-fused pyrimidine derivatives” (Pfizer Inc, priority 1999, dated 2002).
